Laboratory results as given in ChEMBL document CHEMBL5512662, “Illuminating Dark Chemical Matter Using the Cell Painting Assay” (J Med Chem, 2024).

How the values were obtained:
C3H 10T1/2 = assay: Inhibition of purmorphamine-induced osteoblast differentiation in mouse C3H 10T1/2 cells assessed as reduction in alkaline phosphatase level preincubated for 1 hr followed by purmorphamine addition for 4 days by luminescence based assay; type: functional, cell-based
Shh Light II = assay: Inhibition of purmorphamine-induced osteoblast differentiation in mouse Shh Light II cells preincubated for 1 hr followed by purmorphamine addition for 48 hrs by luminescence based reporter gene assay; type: functional, cell-based

Row | IC50 (C3H 10T1/2) [nM] | IC50 (Shh Light II) [nM] | SMILES
1 | 90 | 470 | COCCNC(=O)C1CCN(C(=O)c2cc3sccc3n2Cc2ccc(F)cc2)CC1
2 | 540 | 1400 | COc1ccccc1CCNC(=O)CCCn1nc(C)c2c(C)n(-c3ccc(C)cc3)nc2c1=O
3 | 310 | 2170 | CN(CCCNC(=O)c1nn(C)c2c1CS(=O)(=O)c1ccccc1-2)Cc1ccccc1
4 | 320 |  | CCOc1ccc(Oc2nc(Nc3ccc(C)cc3)nc(N(C)C)n2)nn1
